Columns and labels:
[1] = target: T1, ETA receptor in MMQ cells (rET-A) (Rattus norvegicus, UniProt P26684); assay: ETA/ETB selectivity: (125I)ET-1 competition binding, ETA assay in MMQ cell membranes (rET-A); details: MMQ cell membranes; 0.1 nM (125I)ET-1; read-out: rET-A IC50
T1 construct: endogenous in cells; host or cells: MMQ rat pituitary cells (membranes)
T1 sequence (P26684 21-426): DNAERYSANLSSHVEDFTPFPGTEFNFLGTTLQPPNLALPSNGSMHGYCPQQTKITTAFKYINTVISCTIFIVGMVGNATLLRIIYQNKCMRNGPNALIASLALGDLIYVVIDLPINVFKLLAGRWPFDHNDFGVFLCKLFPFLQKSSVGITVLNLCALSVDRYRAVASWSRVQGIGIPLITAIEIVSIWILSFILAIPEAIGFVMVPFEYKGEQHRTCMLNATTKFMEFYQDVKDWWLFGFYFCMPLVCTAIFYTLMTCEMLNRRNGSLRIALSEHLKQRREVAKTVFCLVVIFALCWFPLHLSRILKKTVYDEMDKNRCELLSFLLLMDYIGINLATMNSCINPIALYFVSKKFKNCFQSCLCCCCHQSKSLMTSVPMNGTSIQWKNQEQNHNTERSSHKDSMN
Description: (§1) The mixture was centrifuged at 1000×g for 10 min. The supernatant was collected and centrifuged at 60,000×g for 60 min. The precipitate was resuspended in 20 mM Tris, pH 7.4 containing protease inhibitor and centrifuged again. The final membrane pellet was resuspended in 20 mM Tris, pH 7.4 containing protease inhibitors and stored at −80° C. until used. Protein content was determined by the Bio-Rad dye-binding protein assay.
(§2) Binding assays were performed in 96-well microtiter plates pretreated with 0.1% BSA. […] After incubation, unbound ligands were separated from bound ligands by a vacuum filtration method using glass-fiber filter strips in PHD cell harvesters (Cambridge Technology, Inc., MA), washing the filter strips three times with saline (1 mL). Nonspecific binding was determined in the presence of 1 μM ET-1. IC50 values are calculated using an average of at least two separate determinations.

[2] = target: T2, ETB receptors of porcine cerebellar tissues (pET-B) (Sus scrofa, UniProt P35463); assay: ETA/ETB selectivity: (125I)ET-3 competition binding, ETB assay in porcine cerebellum membranes (pET-B); details: porcine cerebellum membranes; 0.1 nM (125I)ET-3; read-out: pET-B IC50
T2 construct: porcine cerebellar tissues (known to contain ETB receptors); from tissue; host or cells: porcine cerebellum (membranes)
T2 sequence (P35463 27-443): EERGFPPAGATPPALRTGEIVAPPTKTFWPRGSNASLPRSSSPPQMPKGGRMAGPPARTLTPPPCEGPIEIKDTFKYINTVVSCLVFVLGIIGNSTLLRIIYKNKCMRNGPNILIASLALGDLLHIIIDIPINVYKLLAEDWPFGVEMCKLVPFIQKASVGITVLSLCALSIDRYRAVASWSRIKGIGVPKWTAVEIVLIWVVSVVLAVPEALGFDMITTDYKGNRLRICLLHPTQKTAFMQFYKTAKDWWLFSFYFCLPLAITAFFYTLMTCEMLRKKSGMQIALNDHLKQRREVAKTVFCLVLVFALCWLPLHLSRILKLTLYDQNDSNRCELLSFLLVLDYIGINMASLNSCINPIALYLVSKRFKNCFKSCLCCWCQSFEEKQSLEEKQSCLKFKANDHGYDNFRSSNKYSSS
Description: as §1, §2

human ETB receptor = target: T3, human ETB receptor (Homo sapiens, UniProt P24530); assay: ETA/ETB selectivity: (125I)ET-3 competition binding, CHO cells transfected with human ETB receptor (hET-B); details: CHO cells transfected with human ETB receptor; 0.1 nM (125I)ET-3; read-out: hET-B IC50
T3 construct: expressed in transfected cells; host or cells: CHO cells, permanently transfected
T3 sequence (P24530 27-442): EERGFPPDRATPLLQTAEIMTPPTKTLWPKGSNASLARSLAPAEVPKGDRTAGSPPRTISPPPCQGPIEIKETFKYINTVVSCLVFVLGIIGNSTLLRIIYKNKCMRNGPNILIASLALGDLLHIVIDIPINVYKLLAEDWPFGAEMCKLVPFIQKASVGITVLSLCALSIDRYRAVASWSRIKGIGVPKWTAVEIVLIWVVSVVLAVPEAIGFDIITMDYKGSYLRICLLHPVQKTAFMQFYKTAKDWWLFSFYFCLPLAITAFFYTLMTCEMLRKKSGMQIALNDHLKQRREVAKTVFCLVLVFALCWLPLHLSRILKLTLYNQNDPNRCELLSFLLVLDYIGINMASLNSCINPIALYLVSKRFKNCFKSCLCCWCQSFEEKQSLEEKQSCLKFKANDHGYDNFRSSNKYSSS
Description: MMQ cells, porcine cerebellar tissues (known to contain ETB receptors) and chinese hamster ovary cells (CHO) permanently transfected with the human ETA or ETB receptor were homogenized in 25 ml of 10 mM Hepes (pH 7.4) containing 0.25 M sucrose and a protease inhibitor [50 mM EDTA, 0.1 mM PMSF, 5 μg/ml Pepstatin A, and 0.025% Bacitracin] using a micro ultrasonic cell disrupter. The mixture was centrifuged at 1000×g for 10 min. The supernatant was collected and centrifuged at 60,000×g for 60 min. The precipitate was resuspended in 20 mM Tris, pH 7.4 containing protease inhibitor and centrifuged again. The final membrane pellet was resuspended in 20 mM Tris, pH 7.4 containing protease inhibitors and stored at −80° C. until used. Protein content was determined by the Bio-Rad dye-binding protein assay.
Binding assays were performed in 96-well microtiter plates pretreated with 0.1% BSA. Membranes prepared from cells were diluted 100 fold in Buffer B (20 mM Tris, 100 mM NaCl, 10 mM MgCl2, pH 7.4, with 0.2% BSA, 0.1 mM PMSF, 5 μg/mL Pepstatin A, 0.025% bacitracin, and 50 mM EDTA) to a final concentration of 0.2 mg/mL of protein. In competition binding studies, membranes (0.02 mg) were incubated with 0.1 nM of (^125I)ET-1 (for ETA assay in MMQ or CHO cells transfected with human ETA receptor) or (^125I)ET-3 (for ETB assay in porcine cerebellum or CHO cells transfected with human ETB receptor) in Buffer B (final volume: 0.2 mL) in the presence of increasing concentrations of the test compound for 3 hours at 25° C. After incubation, unbound ligands were separated from bound ligands by a vacuum filtration method using glass-fiber filter strips in PHD cell harvesters (Cambridge Technology, Inc., MA), washing the filter strips three times with saline (1 mL). Nonspecific binding was determined in the presence of 1 μM ET-1. IC50 values are calculated using an average of at least two separate determinations.

Compound | IC50 [1] | IC50 [2] | IC50 (human ETB receptor)
CCCCN(CCCC)C(=O)CN1CC(c2ccc3c(c2)OCO3)C(C(=O)O)C1CCC1OCCO1 (centres unmarked) [compound 504] | 0.0031 µM | > 100 µM | > 100 µM
CCCCN(CCCC)C(=O)CN1CC(c2ccc3c(c2)OCO3)C(C(=O)O)C1CC(C)(C)C=C(C)C (centres unmarked) [compound 506] | 0.0032 µM | > 100 µM | 61 µM
CCCCN(CCCC)C(=O)CN1CC(c2cc(OC)c3c(c2)OCO3)C(C(=O)O)C1CCC1OCCO1 (centres unmarked) [compound 509] | 0.00056 µM | 30 µM | 23 µM
CCCCN(CCCC)C(=O)CN1CC(c2ccc3c(c2)OCO3)C(C(=O)O)C1COc1ccccc1OC (centres unmarked) [compound 510] | 0.0005 µM | 35 µM | 11 µM
CCCC(CCC)N(C(=O)CN1CC(c2cc(OC)c3c(c2)OCO3)C(C(=O)O)C1CCC1OCCO1)c1ccc(F)c(C)c1 (centres unmarked) [compound 513] | 0.0003 µM | 8.8 µM | 14 µM
CCCCN(CCCC)C(=O)CN1C[C@H](c2ccc3c(c2)CCO3)[C@@H](C(=O)O)[C@@H]1CC(C)(C)CCC [compound 515] | 0.0016 µM | > 62 µM | > 100 µM
CCCCN(CCCO)C(=O)CN1CC(c2ccc3c(c2)OCO3)C(C(=O)O)C1c1ccc(OC)cc1 (centres unmarked) [compound 523] | 0.00042 µM | 0.36 µM | 0.29 µM
CCCON(CCC)C(=O)CN1CC(c2ccc3c(c2)OCO3)C(C(=O)O)C1c1ccc(OC)cc1 (centres unmarked) [compound 524] | 0.00079 µM | 1.7 µM | 0.89 µM
CCCCN(C(=O)CN1CC(c2ccc3c(c2)OCO3)C(C(=O)O)C1c1ccc(OC)cc1)c1cccnc1 (centres unmarked) [compound 531] | 0.0012 µM | – | 0.87 µM
CCCCN(CCCC)C(=O)CN1C[C@H](c2ccc3c(c2)OCO3)[C@@H](C(=O)O)[C@@H]1CC(C)(C)CCC [compound 537] | 0.00096 µM | 5.9 µM | 1.9 µM

Other lines, results leading:

IC50 [1] | IC50 [2] | IC50 (human ETB receptor) | Compound
0.0014 µM | 50 µM | 52 µM | CCCCN(CCCC)C(=O)CN1CC(c2ccc3c(c2)OCO3)C(C(=O)O)C1CC(C)(C)CCC (centres unmarked) [compound 503]
0.002 µM | 60 µM | 68 µM | CCCCN(CCCC)C(=O)CN1CC(c2ccc3c(c2)OCO3)C(C(=O)O)C1CCC1CCCCO1 (centres unmarked) [compound 505]
0.003 µM | > 100 µM | > 100 µM | CCCCN(CCCC)C(=O)CN1CC(c2ccc3c(c2)OCO3)C(C(=O)O)C1CC(C)(C)C1OCCO1 (centres unmarked) [compound 507]
0.00071 µM | 29 µM | 37 µM | CCCCN(CCCC)C(=O)CN1CC(c2cc(OC)c3c(c2)OCO3)C(C(=O)O)C1CC(C)(C)C1OCCO1 (centres unmarked) [compound 516]
0.001 µM | 30 µM | 12 µM | CCCCN(CCCC)C(=O)CN1CC(c2ccc3c(c2)OCO3)C(C(=O)O)C1CCc1ccccc1OC (centres unmarked) [compound 517]

From US7208517B1, “Endothelin antagonists” (Abbott Labortories, priority 1994, dated 2007)
